Assay [1] concerns feral pigs. Particulars: bait containing 0.13% warfarin by weight of the bait; McIlroy et al.; cited from earlier work.
In another assay the test system is feral hogs. In words: studies using the instant feral hog control system with low dose warfarin bait. Type of assay: in vivo, Sus scrofa. The source says: As to particular studies, death of the feral hogs (2) occurred within not greater than about five days following exposure to the bait (3).
The test system of assay [2] is feral pigs. Particulars: bait containing 0.09% warfarin by weight of the bait; Saunders et al.; cited from earlier work.
The mark [3] stands for this setting: bait with about 0.005% warfarin by weight of the bait.
The mark [4] stands for this setting: bait with about 0.01% warfarin by weight of the bait.

Data on one compound can be found in patent publication US20180049425A1, “Bait Composition” (priority 2016, published 2018).

As for `CC(=O)CC(c1ccccc1)c1c(O)c2ccccc2oc1=O` (stereo not drawn) [warfarin], in the assay on feral pigs [1], the feral pigs dying was 30 of 32 and the “time of dying after bait distribution (mean±s.e.)” value was 9.7 ± 0.4 days. In addition, in the assay with feral hogs (setting [3]), the “death of the feral hogs following exposure to the bait” value is reported as “ten”; the mortality rate worked out at 100%; the “death of the feral hogs following exposure to the bait, particular studies” value is “five”. Besides, in the assay on feral hogs (setting [4]), the “death of the feral hogs following exposure to the bait” value is on record as “ten”; the mortality rate is given as 100%; the “death of the feral hogs following exposure to the bait, particular studies” value is on record as “five”. Besides, the “first death recorded after bait distribution” value with feral pigs [2] was “six”.
